Columns and labels:
[1] = Selectivity ratio of Ki for human recombinant HGPRT to Ki for Plasmodium falciparum recombinant HGXPRT
[2] = Inhibition of Plasmodium falciparum recombinant HGXPRT expressed in Escherichia coli by spectrophotometric assay
[3] = biological target: T1, Hypoxanthine-guanine phosphoribosyltransferase (Homo sapiens, UniProt P00492); assay: Inhibition of human recombinant HGPRT expressed in Escherichia coli by spectrophotometric assay
T1 sequence (P00492 whole entry): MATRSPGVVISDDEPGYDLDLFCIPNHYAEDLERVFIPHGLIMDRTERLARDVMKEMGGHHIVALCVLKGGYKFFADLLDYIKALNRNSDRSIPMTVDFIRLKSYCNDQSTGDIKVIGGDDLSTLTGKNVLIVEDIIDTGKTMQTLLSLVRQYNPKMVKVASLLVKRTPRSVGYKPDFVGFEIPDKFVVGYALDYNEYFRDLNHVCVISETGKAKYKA

SMILES	Ratio Ki [1]	Ki [2] [µM]	Ki [3] [µM]
CC(CP(=O)(O)O)OCCn1cnc2c(=O)[nH]c(N)nc21 (configuration not stated)	0.1	1	0.1
CCC(CP(=O)(O)O)OCCn1cnc2c(=O)[nH]cnc21 (configuration not stated)	0.15	69	10
CCC(CP(=O)(O)O)OCCn1cnc2c(=O)[nH]c(N)nc21 (configuration not stated)	0.06	5	0.3
CC(CP(=O)(O)O)OCCn1cnc2c(=O)[nH]cnc21 (configuration not stated)	0.2	10	2

Reference: ChEMBL document CHEMBL1152535, “Synthesis of branched 9-[2-(2-phosphonoethoxy)ethyl]purines as a new class of acyclic nucleoside phosphonates which inhibit Plasmodium falciparum hypoxanthine-guanine-xanthine phosphoribosyltransferase” (Bioorg Med Chem, 2009)
